Laboratory results reported in patent publication US12193465B2, “Materials and methods for extending shelf-life of foods” (JP Laboratories, Inc., priority 2021, dated 2025).

Tests used:
[1] = General shelf-life extension of foods (spoilage criteria of Example 9); settings: for Effectiveness for controlling one or more spoilage criteria: variety of foods
Protocol: All studies were conducted at a room temperature of about 25° C. To determine the effectiveness of a shelf-life extender, a control sample which was untreated with any shelf-life extenders, was tested identical to the test samples. […] All studies in those Examples of Tables 1-6 were conducted in closed plastic or glass containers. Containers, such as plastic containers, without or with lids having holes can be used if it is advantageous to let excess moisture escape or to prevent condensation of moisture released by some produce.
Food exposed to preservatives or by a sachet was placed in typically polystyrene or acrylic containers depending upon the size and number of food items. Glass jars and bottles were also used. The containers were snap-closed or with a lid. The containers were purchased mainly from Amazon or Webstaurant.com store. When needed, plastic containers with holes or without lids were used.
For controlled exposure and a constant supply of a preservative to foods, sachets containing one or more drops of preservatives were used. Sachets were made by placing an appropriate amount of a preservative in a plastic bag containing a piece of paper and heat sealing the bag. The sachet bag materials used were Tyvek® for solid preservative, polyethylene, polyester and high barrier multilayer films were used for liquid preservatives. These bags were sealed with a heat sealer. The sachet was typically applied on one side of the container containing food.
A piece of paper napkin was taped inside a 100 microns thick polyethylene or polyester Ziploc bag. The size of the bag varied from ˜20 cm×30 cm to ˜60 cm×90 cm depended on the sample with sandwich bags up to gallon bags being exemplary. The paper napkin was wetted with 0.1-0.5 ml of a preservative or a mixture of preservatives. A tray of aluminum, stainless steel or glass containing the foods was placed inside the plastic (polyethylene, polyester and multilayer-laminated) bag and almost closed by locking the Ziploc. Air was blown with an air blower from the unclosed end until the bag was fully blown and then quickly closed tightly by locking the remaining Ziploc. If a preservative was a sublimable solid, it was placed in a petri dish and then placed inside the bag in the tray before blowing air. The exposure time was varied from five minutes to a day depending upon the food. […] The assembly was shaken periodically. After the predetermined time, the tray containing produce was removed from the bag, allowed to de-gas for 10-30 minutes in air and the produce was then placed in an appropriately sized container. Glass and stainless steel containers with lids were also often used.
A solution of one or more preservatives was prepared in a large (e.g., 2-10 liter) glass beaker or a jar. A sack containing the food was prepared by placing the food in a plastic mesh bag. The sack was placed in the solution of the preservative. A smaller glass beaker containing proper amount of water was place over the package to keep the sack soaked in the solution of the preservative during the treatment. The solution was stirred either with a plastic spatula or with a magnet over a magnetic stirrer. After treatment, the mesh sack was removed, the produce was washed in a tray with running water, strained and air dried at 30° C. in an air blowing oven for about 5-10 minutes, while shaking the tray or turning the food periodically followed by placing the sample in an appropriate container.
The food was placed in mesh trays and sprayed with an aqueous solution (1-10%) of a preservative while shaking the tray or turning the food. The solution was allowed to drain from the tray and the food was air dried in an air blowing oven at 30° C. for about 5-10 minutes, while shaking the tray or turning food periodically followed by placing the sample in an appropriate container.

[2] = test system: fungus; experiment: Fungus growth on treated foods stored in closed containers at room temperature; settings: for Spoilage Time - Sample: Fungus;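 on Effectiveness on ginger: compared with untreated control ginger in closed containers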
From the text: (§1) Most of the foods changed color or texture.
Glass jars and bottles were also used. The containers were snap-closed or with a lid.
(§2) These bags were sealed with a heat sealer.
(§3) The assembly was shaken periodically.

[3] = Curdling / cream / solidification of milk; settings: for Curdling of milk: pasteurized whole and fat-free milk;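 on Curdling of milk: compared with untreated control milk in closed containers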;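 on Curdling: compared with untreated control milk in closed containers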
From the text: as §1

[4] = test system: grains, legumes, potatoes, garlic; experiment: Germination / sprouting of grains, legumes and tubers; settings: potatoes
From the text: as §2, §3

Compound: CC12CCC(CC1=O)C2(C)C (racemic) [(±)-camphor]
- Shelf-life of flowery vegetables [1]: extended shelf-life

Compound: COc1ccccc1B(O)O [2-methoxyphenylboronic acid]
- Effectiveness in extending freshness of cold press fresh juices [2]: effective
- Curdling ([3]; raw cow milk and raw goat milk): delayed curdling

Compound: Cc1ccc2cccc(O)c2n1 [2-methyl-8-quinolinol]
- Effectiveness for controlling one or more spoilage criteria [1]: effective to a greater or lesser extent

Compound: Cc1ccccc1B(O)O [2-methylphenylboronic acid]
- Curdling of milk [3]: delayed curdling

Compound: CC1CCCCC1=O (centres unmarked) [2MC, 2-Methylcyclohexanone]
- Fungus growth ([2]; strawberries, raspberries, blackberries and lychee): either prevented or significantly delayed
- Shelf-life of flowery vegetables [1]: extended shelf-life
- Effectiveness for controlling one or more spoilage criteria [1]: effective to a greater or lesser extent

Compound: Cc1cc(C)cc(B(O)O)c1 [3,5-dimethylphenylboronic acid]
- Effectiveness in extending freshness of cold press fresh juices [2]: effective
- Curdling of milk [3]: delayed curdling
- Curdling ([3]; raw cow milk and raw goat milk): delayed curdling

Compound: OB(O)c1cccc(Cl)c1 [3-chlorophenylboronic acid, 3-Chlorophenylboronic acid]
- Effectiveness in extending freshness of cold press fresh juices [2]: effective
- Shelf-life of raw milk yogurt ([2]; raw milk yogurt): extended shelf-life
- Curdling ([3]; Example 135, fat-free milk): either prevented or significantly delayed
- Spoilage Time - Sample (Solid) ([3]; Pasteurized fat free milk, 0.05 g, control 3 days): 14 days
- Curdling of milk [3]: delayed curdling
- Curdling ([3]; raw cow milk and raw goat milk): delayed curdling

Compound: COc1cccc(B(O)O)c1 [3-methoxyphenylboronic acid, 3-Methoxyphenylboronic acid]
- Fungus growth ([2]; 96 h): > 27 days
- Spoilage Time - Sample (Fungus) ([2]; Orange juice with peel, 0.02 g, control 4 days): 27 days
- Curdling of milk [3]: delayed curdling
- Curdling ([3]; raw cow milk and raw goat milk): delayed curdling

Compound: COC(=O)c1ccc(B(O)O)cc1 [4-(methoxycarbonyl)phenylboronic acid]
- Effectiveness in extending freshness of cold press fresh juices [2]: effective
- Curdling of milk [3]: delayed curdling
- Curdling ([3]; raw cow milk and raw goat milk): delayed curdling

Compound: OB(O)c1ccc(-c2ccccc2)cc1 [4-biphenylboronic acid]
- Effectiveness in extending freshness of cold press fresh juices [2]: effective
- Curdling of milk [3]: delayed curdling
- Curdling ([3]; raw cow milk and raw goat milk): delayed curdling

Compound: OB(O)c1ccc(Br)cc1 [4-bromophenylboronic acid, 4-Bromophenylboronic acid]
- Fungus growth ([2]; Example 134, raw milk yogurt, preservative added, control 3 days): > 5 days
- Spoilage Time - Sample (Fungus) ([2]; Raw milk yogurt, 0.10 g, control 3 days): 5 days
- Effectiveness in extending freshness of cold press fresh juices [2]: effective
- Curdling of milk [3]: delayed curdling
- Curdling ([3]; raw cow milk and raw goat milk): delayed curdling

Compound: CC(=O)CC(C)(C)O [4-hydroxy-4-methyl-2-pentanone]
- Effectiveness for controlling one or more spoilage criteria [1]: effective to a greater or lesser extent

Compound: CC1CCC(=O)CC1 [4-methylcyclohexanone]
- Shelf-life of flowery vegetables [1]: extended shelf-life
- Effectiveness for controlling one or more spoilage criteria [1]: effective to a greater or lesser extent

Compound: CC(C)(C)c1ccc(B(O)O)cc1 [4-tert-butylphenylboronic acid, 4-tert-Butylphenylboronic acid]
- Shelf-life of tomato juice ([2]; Example 133, fresh cold pressed tomato juice): improve shelf-life
- Spoilage Time - Sample (Fungus) ([2]; Tomato juice, 0.20 g, control 4 days): 27 days
- Shelf-life of raw milk yogurt ([2]; raw milk yogurt): extended shelf-life
- Curdling of milk [3]: delayed curdling
- Curdling ([3]; raw cow milk and raw goat milk): delayed curdling

Compound: N.NC(=O)O [ACB, Ammonium carbaminate]
- Spoilage Time - Sample (Fungus) ([2]; Fresh, unshelled peanuts, Sachet, control 5 days): 45 days

Compound: O=C1CCCCCC1 [CH, Cycloheptanone]
- Spoilage Time - Sample ([2]; Example 91, Blueberry, Sachet, control 5 days): 67 days
- Shelf-life of flowery vegetables [1]: extended shelf-life
- Effectiveness for controlling one or more spoilage criteria [1]: effective to a greater or lesser extent

Compound: O=C1CCCC1 [CP, Cyclopentanone]
- Spoilage Time - Sample ([2]; Example 115, Strawberry, Sachet, control 2 days): 5 days
- Shelf-life of flowery vegetables [1]: extended shelf-life
- Effectiveness for controlling one or more spoilage criteria [1]: effective to a greater or lesser extent

Compound: CCN=C=S [EI, ethyl isothiocyanate]
- Spoilage Time - Sample ([2]; Example 85, Tomato juice, 0.02 g, control 4 days): 27 days
- Spoilage Time - Sample ([2]; Example 85, Tomato juice, 0.02 g, control 4 days, listed as Ethyl isothiocyanate): improve shelf-life
- Effectiveness on ginger ([2]; ginger, pre-exposure and sachet method): found effective
- Shelf-life of raw milk yogurt ([2]; raw milk yogurt): extended shelf-life
- Effectiveness at extending the shelf-life of potatoes [4]: effective
- Spoilage Time - Sample ([3]; Example 84, Cream, Raw cow milk, 0.07 g, control 3 days): 24 days
- Spoilage Time - Sample ([3]; Example 86, Solid, Pasteurized whole milk, 0.05 g, control 3 days): 14 days
- Spoilage Time - Sample ([3]; Example 86, Solid, Pasteurized whole milk, 0.05 g, control 3 days, listed as ethyl isothiocyanate): either prevented or significantly delayed

Compound: CC1=CCCC1 [MCP, 1-Methylcyclopentene]
- Shelf-life of flowery vegetables [1]: extended shelf-life
- Shelf-life of shelled and unshelled peanuts ([1]; peanuts): extended
- Effectiveness for controlling one or more spoilage criteria [1]: effective to a greater or lesser extent

Compound: S=C=Nc1ccccc1 [PI, phenyl isothiocyanate]
- Spoilage Time - Sample ([2]; Example 87, White pearl onions, Sachet, 100% relative humidity, control 8 days): 48 days
- Spoilage Time - Sample ([2]; Example 88, Yellow pearl onions, Sachet, 100% relative humidity, control 24 days): 48 days
- Effectiveness in extending freshness of cold press fresh juices [2]: effective
- Effectiveness at extending the shelf-life of potatoes [4]: effective
- Curdling ([3]; raw cow milk and raw goat milk): delayed curdling

Compound: N.N.N.O=P(O)(O)O [ammonium phosphate]
- Effectiveness at extending the shelf-life of potatoes [4]: effective

Compound: c1ccc(COCc2ccccc2)cc1 [benzyl ether, Benzyl Ether]
- Fungus growth ([2]; Example 146, ginger, pre-exposed to vapor, control 12 days): > 37 days
- Spoilage Time - Sample (Fungus) ([2]; Ginger, 1 hr P-E, control 12 days): 37 days
- Effectiveness for controlling one or more spoilage criteria [1]: effective to a greater or lesser extent

Compound: S=C=NCc1ccccc1 [benzyl isothiocyanate]
- Curdling ([3]; raw cow milk and raw goat milk): delayed curdling

Compound: OB(O)O [boric acid]
- Curdling of milk [3]: delayed curdling

Compound: CCCCN=C=S [butyl isothiocyanate]
- Effectiveness in extending freshness of cold press fresh juices [2]: effective
- Curdling ([3]; raw cow milk and raw goat milk): delayed curdling

Compound: CCCCB(O)O [butylboronic acid]
- Effectiveness in extending freshness of cold press fresh juices [2]: effective
- Shelf-life of raw milk yogurt ([2]; raw milk yogurt): extended shelf-life
- Curdling of milk [3]: delayed curdling
- Curdling ([3]; raw cow milk and raw goat milk): delayed curdling

Compound: O=c1ccc2ccccc2o1 [coumarin]
- Effectiveness for controlling one or more spoilage criteria [1]: effective to a greater or lesser extent

Compound: COC(=O)CC(=O)OC [dimethyl malonate]
- Effectiveness for controlling one or more spoilage criteria [1]: effective to a greater or lesser extent

Compound: S [hydrogen sulfide, Hydrogen sulfide]
- Fungus growth ([2]; Example 159, snow peas, Himalayan salt sachet, control 6 days): > 11 days
- Spoilage Time - Sample (Fungus) ([2]; Snow peas, Sachet, control 6 days (Example 159)): 11 days
- Spoilage Time - Sample (Fungus) ([2]; Snow peas, Sachet, control 11 days (Example 160)): 15 days

Compound: COC(=O)C1CCCC1=O (centres unmarked) [methyl cyclopentanone-2-carboxylate]
- Effectiveness for controlling one or more spoilage criteria [1]: effective to a greater or lesser extent

Compound: Cc1ccc(N=C=S)cc1 [p-tolyl isothiocyanate]
- Curdling ([3]; raw cow milk and raw goat milk): delayed curdling

Compound: Oc1cccc(O)c1 [resorcinol]
- Effectiveness for controlling one or more spoilage criteria [1]: effective to a greater or lesser extent
